These are literature values, as cited in US20080275015A1, “Formulation and Method for Treating Interstitial Cystitis and Related Bladder Conditions” (priority 2007, published 2008).

For the series the following is noted: oral prescription for interstitial cystitis; standard dosing 100 mg three times daily.

On to pentosan polysulfate sodium [Elmiron], for which the “cases in which treatment has been shown to be effective” value is reported as 30%.
